Patent US11542240B2, “STK19 inhibitors for treatment of cancer” (TRUSTEES OF BOSTON UNIVERSITY, priority 2018, dated 2023)
Like-named read-outs stand apart in the source and are kept apart here.

Tests used:
Test in all cases: biochemical
Format in all cases: binding
[1] = molecular target: panel of 468 diverse kinases (Homo sapiens, UniProt Q92918); settings: HPK1; 1000 nM; read-out: Percent Control
[2] = molecular target: panel of 468 diverse kinases (Homo sapiens, UniProt Q15759); settings: p38-beta; 1000 nM; read-out: Percent Control
[3] = molecular target: panel of 468 diverse kinases (Homo sapiens, UniProt P36888, R834Q); settings: FLT3(R834Q); 1000 nM; read-out: Percent Control
[4] = molecular target: panel of 468 diverse kinases (Homo sapiens, UniProt P42336, I800L); settings: PIK3CA(I800L); 1000 nM; read-out: Percent Control
[5] = molecular target: panel of 468 diverse kinases (Homo sapiens, UniProt Q9H2K8); settings: TAOK3; 1000 nM; read-out: Percent Control
[6] = molecular target: panel of 468 diverse kinases (Homo sapiens, UniProt P15056, V600E); settings: BRAF(V600E); 1000 nM; read-out: Percent Control
Chain of panel of 468 diverse kinases (Homo sapiens, UniProt P15056, V600E) (P15056 2-766 V600E limits assumed): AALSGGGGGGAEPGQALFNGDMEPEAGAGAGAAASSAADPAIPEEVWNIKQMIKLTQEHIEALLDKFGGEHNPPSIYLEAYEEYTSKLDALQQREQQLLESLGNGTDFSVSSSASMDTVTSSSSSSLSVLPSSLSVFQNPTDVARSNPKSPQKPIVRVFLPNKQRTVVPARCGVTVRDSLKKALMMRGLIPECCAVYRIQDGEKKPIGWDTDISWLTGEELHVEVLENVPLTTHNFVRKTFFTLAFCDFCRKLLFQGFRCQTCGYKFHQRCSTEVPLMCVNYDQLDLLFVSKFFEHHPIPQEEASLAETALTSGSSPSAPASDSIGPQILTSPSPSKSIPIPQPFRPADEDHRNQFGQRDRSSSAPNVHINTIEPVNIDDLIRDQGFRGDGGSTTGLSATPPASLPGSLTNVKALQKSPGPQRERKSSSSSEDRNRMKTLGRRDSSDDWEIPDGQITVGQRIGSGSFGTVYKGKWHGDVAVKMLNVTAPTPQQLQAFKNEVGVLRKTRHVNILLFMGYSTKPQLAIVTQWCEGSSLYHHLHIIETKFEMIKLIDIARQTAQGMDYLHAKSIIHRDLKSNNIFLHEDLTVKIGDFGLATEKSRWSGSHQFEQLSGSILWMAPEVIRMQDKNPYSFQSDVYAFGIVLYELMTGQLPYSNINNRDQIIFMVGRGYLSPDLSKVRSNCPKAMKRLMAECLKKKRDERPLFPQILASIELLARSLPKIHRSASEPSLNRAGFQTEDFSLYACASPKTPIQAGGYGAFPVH

[7] = molecular target: panel of 468 diverse kinases (Homo sapiens, UniProt P49336); settings: CDK8; 1000 nM; read-out: Percent Control
[8] = molecular target: panel of 468 diverse kinases (Homo sapiens, UniProt Q00537); settings: PCTK2; 1000 nM; read-out: Percent Control
[9] = molecular target: panel of 468 diverse kinases (Homo sapiens, UniProt P35916); settings: FLT4; 1000 nM; read-out: Percent Control
Chain of panel of 468 diverse kinases (Homo sapiens, UniProt P35916) (P35916 25-1363 limits assumed): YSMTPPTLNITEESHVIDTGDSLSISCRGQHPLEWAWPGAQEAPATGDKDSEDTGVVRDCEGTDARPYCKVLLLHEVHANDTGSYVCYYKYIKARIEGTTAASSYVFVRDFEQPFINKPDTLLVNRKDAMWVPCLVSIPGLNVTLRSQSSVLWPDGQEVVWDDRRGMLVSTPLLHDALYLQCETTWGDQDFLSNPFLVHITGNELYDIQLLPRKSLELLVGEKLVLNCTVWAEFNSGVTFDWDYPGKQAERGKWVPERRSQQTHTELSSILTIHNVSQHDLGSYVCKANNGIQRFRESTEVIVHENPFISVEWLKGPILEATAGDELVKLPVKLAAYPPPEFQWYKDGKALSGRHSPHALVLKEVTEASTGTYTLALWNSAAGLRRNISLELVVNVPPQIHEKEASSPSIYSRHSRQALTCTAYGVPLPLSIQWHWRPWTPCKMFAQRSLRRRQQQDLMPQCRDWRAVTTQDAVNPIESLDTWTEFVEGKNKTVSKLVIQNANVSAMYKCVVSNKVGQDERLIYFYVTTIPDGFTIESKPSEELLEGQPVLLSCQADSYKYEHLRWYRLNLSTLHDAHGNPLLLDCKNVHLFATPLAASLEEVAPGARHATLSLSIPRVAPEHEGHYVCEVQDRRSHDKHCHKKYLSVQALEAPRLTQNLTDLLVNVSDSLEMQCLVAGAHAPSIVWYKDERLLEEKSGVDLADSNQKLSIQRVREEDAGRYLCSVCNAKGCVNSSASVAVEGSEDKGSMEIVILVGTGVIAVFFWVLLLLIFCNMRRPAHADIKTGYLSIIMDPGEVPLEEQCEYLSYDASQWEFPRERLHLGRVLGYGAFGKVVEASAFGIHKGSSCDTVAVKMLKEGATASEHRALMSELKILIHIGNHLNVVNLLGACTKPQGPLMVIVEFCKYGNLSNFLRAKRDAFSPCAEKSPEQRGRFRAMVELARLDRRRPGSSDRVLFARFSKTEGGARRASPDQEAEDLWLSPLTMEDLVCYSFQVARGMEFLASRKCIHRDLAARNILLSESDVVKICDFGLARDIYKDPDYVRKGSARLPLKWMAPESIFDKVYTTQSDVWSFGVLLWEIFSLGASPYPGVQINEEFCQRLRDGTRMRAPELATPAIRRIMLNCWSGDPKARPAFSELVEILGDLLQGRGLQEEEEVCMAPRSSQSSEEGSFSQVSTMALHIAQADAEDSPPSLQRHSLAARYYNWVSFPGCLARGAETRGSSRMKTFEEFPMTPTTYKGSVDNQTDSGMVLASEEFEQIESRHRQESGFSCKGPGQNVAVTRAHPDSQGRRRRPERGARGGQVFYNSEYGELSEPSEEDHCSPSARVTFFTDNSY

[10] = molecular target: panel of 468 diverse kinases (Homo sapiens, UniProt O94921); settings: PFTK1; 1000 nM; read-out: Percent Control
[11] = molecular target: panel of 468 diverse kinases (Homo sapiens, UniProt P30291); settings: WEE1; 1000 nM; read-out: Percent Control
[12] = molecular target: panel of 468 diverse kinases (Homo sapiens, UniProt Q9BXA7); settings: TSSK1B; 1000 nM; read-out: Percent Control
[13] = molecular target: panel of 468 diverse kinases (Homo sapiens, UniProt Q9UHD2); settings: TBK1; 1000 nM; read-out: Percent Control
[14] = molecular target: panel of 468 diverse kinases (Homo sapiens, UniProt P07949, V804M); settings: RET(V804M); 1000 nM; read-out: Percent Control
Chain of panel of 468 diverse kinases (Homo sapiens, UniProt P07949, V804M) (P07949 29-1114 V804M limits assumed): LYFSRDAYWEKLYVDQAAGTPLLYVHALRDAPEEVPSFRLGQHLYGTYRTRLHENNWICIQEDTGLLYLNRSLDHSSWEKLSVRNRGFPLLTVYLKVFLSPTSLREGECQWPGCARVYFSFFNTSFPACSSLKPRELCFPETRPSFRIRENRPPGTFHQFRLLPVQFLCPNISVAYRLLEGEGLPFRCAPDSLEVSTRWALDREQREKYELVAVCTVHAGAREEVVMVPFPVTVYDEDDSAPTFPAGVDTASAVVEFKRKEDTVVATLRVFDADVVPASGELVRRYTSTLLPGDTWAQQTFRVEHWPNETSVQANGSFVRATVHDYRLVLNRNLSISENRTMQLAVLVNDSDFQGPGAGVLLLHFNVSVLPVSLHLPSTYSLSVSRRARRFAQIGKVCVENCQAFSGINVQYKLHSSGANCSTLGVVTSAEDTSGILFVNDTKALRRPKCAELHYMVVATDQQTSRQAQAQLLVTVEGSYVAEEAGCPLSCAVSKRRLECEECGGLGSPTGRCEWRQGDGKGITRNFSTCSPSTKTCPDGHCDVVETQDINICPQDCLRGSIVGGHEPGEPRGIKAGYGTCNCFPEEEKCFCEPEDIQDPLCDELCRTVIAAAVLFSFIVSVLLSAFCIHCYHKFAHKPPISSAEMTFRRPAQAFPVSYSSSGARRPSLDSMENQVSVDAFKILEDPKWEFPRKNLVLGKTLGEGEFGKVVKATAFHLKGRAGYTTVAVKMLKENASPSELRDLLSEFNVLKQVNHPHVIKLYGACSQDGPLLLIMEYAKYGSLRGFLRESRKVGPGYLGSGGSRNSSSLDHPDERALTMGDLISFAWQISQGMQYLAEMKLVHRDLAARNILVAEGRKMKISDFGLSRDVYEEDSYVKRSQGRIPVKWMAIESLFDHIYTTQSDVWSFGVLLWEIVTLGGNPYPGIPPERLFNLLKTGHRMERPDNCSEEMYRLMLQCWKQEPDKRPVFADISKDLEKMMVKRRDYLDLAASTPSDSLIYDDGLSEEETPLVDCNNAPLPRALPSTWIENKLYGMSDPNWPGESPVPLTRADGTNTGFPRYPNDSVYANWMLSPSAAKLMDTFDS

[15] = molecular target: panel of 468 diverse kinases (Homo sapiens, UniProt O00141); settings: SGK; 1000 nM; read-out: Percent Control
[16] = molecular target: panel of 468 diverse kinases (Homo sapiens, UniProt Q02779); settings: MLK2; 1000 nM; read-out: Percent Control
[17] = molecular target: panel of 468 diverse kinases (Homo sapiens, UniProt Q13554); settings: CAMK2B; 1000 nM; read-out: Percent Control
[18] = molecular target: panel of 468 diverse kinases (Homo sapiens, UniProt Q99640); settings: PKMYT1; 1000 nM; read-out: Percent Control
[19] = molecular target: panel of 468 diverse kinases (Homo sapiens, UniProt Q8NG66); settings: NEK11; 1000 nM; read-out: Percent Control
[20] = molecular target: panel of 468 diverse kinases (Homo sapiens, UniProt Q8NEV4); settings: MYO3A; 1000 nM; read-out: Percent Control
[21] = molecular target: panel of 468 diverse kinases (Homo sapiens, UniProt Q08881); settings: ITK; 1000 nM; read-out: Percent Control
[22] = molecular target: panel of 468 diverse kinases (Homo sapiens, UniProt Q14289); settings: PYK2; 1000 nM; read-out: Percent Control
[23] = molecular target: panel of 468 diverse kinases (Homo sapiens, UniProt Q13470); settings: TNK1; 1000 nM; read-out: Percent Control
[24] = molecular target: panel of 468 diverse kinases (Homo sapiens, UniProt Q8IVW4); settings: CDKL3; 1000 nM; read-out: Percent Control
[25] = molecular target: panel of 468 diverse kinases (Homo sapiens, UniProt Q15746); settings: MYLK; 1000 nM; read-out: Percent Control
[26] = molecular target: panel of 468 diverse kinases (Homo sapiens, UniProt O60285); settings: ARK5; 1000 nM; read-out: Percent Control
[27] = molecular target: panel of 468 diverse kinases (Homo sapiens, UniProt P10721, T670I/V559D); settings: KIT(V559D,T670I); 1000 nM; read-out: Percent Control
Chain of panel of 468 diverse kinases (Homo sapiens, UniProt P10721, T670I/V559D) (P10721 26-976 V559D/T670I limits assumed): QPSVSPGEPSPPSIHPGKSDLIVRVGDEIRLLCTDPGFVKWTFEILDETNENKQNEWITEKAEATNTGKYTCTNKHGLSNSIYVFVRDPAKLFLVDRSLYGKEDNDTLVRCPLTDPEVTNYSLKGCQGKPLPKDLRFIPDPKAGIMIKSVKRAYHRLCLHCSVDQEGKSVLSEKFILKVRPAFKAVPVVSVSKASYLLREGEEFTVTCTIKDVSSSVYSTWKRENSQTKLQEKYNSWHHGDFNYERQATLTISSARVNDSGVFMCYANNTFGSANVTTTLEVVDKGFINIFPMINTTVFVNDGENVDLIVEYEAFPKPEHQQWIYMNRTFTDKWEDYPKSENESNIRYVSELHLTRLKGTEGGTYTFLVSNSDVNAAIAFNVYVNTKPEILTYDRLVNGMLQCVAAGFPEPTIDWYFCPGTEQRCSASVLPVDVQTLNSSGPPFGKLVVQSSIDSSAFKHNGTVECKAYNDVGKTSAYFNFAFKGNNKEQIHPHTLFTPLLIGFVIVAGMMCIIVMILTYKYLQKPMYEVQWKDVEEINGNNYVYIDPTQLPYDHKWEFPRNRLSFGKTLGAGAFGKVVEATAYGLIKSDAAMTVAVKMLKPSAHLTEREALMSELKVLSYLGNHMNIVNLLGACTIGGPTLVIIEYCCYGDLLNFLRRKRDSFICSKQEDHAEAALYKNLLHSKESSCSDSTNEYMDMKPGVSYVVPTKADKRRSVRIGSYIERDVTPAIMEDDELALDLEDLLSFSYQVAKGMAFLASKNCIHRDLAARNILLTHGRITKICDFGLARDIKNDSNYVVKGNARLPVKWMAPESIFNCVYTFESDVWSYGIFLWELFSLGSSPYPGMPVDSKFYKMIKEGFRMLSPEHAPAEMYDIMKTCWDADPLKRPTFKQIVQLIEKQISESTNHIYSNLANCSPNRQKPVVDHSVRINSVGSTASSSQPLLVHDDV

[28] = molecular target: panel of 468 diverse kinases (Homo sapiens, UniProt Q16513); settings: PKN2; 1000 nM; read-out: Percent Control
[29] = molecular target: panel of 468 diverse kinases (Homo sapiens, UniProt P54753); settings: EPHB3; 1000 nM; read-out: Percent Control
Chain of panel of 468 diverse kinases (Homo sapiens, UniProt P54753) (P54753 34-998 limits assumed): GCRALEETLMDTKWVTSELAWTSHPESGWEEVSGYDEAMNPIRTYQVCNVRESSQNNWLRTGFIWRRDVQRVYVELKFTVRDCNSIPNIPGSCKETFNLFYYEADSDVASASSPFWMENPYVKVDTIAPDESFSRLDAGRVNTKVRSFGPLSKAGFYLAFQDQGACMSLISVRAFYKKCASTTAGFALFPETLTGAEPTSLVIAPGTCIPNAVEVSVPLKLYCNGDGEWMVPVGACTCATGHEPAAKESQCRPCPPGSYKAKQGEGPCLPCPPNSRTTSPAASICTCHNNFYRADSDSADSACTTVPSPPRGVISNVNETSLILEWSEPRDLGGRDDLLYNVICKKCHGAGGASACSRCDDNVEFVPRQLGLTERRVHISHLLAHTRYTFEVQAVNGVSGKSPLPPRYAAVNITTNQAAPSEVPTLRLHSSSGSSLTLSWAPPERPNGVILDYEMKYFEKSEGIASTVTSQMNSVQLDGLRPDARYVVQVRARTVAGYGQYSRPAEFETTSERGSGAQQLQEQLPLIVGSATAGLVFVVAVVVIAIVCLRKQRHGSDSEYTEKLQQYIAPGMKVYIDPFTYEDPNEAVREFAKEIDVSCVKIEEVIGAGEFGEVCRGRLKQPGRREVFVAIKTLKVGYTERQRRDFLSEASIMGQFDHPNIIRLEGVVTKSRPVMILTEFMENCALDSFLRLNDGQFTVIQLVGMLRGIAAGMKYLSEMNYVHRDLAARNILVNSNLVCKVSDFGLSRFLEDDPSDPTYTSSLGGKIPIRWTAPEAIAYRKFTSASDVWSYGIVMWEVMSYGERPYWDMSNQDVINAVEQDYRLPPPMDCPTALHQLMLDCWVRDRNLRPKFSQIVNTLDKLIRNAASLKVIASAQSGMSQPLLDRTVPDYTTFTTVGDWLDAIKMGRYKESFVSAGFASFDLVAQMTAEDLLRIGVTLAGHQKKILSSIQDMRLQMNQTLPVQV

[30] = molecular target: panel of 468 diverse kinases (Homo sapiens, UniProt Q9UK32); settings: 1000 nM, read-out: Percent Control
[31] = molecular target: panel of 468 diverse kinases (Homo sapiens, UniProt Q86V86); settings: PIM3; 1000 nM; read-out: Percent Control

With COc1cc2nc(NC3CC3)nc(NC3CCN(C(C)C)CC3)c2cc1OC [Formula IV] the remaining activity at 1 µM [1] was 86%, the remaining activity at 1 µM [2] was 87% and the remaining activity at 1 µM [3] was 40%. The remaining activity at 1 µM [4] was 94%, the remaining activity at 1 µM [5] was 54% and the remaining activity at 1 µM [6] was 89%. For the same compound, the remaining activity at 1 µM [7] was 96%, the remaining activity at 1 µM [8] was 94% and the remaining activity at 1 µM [9] was 80%. The remaining activity at 1 µM [10] was 98%, the remaining activity at 1 µM [11] was 100% and the remaining activity at 1 µM [12] was 85%. It also gave a remaining activity at 1 µM [13] of 98%, a remaining activity at 1 µM [14] of 100% and a remaining activity at 1 µM [15] of 68%. The remaining activity at 1 µM [16] was 95%, the remaining activity at 1 µM [17] was 91% and the remaining activity at 1 µM [18] was 93%. It also gave a remaining activity at 1 µM [19] of 42%, a remaining activity at 1 µM [20] of 100% and a remaining activity at 1 µM [21] of 96%. It also gave a remaining activity at 1 µM [22] of 93%, a remaining activity at 1 µM [23] of 67% and a remaining activity at 1 µM [24] of 66%. The remaining activity at 1 µM [25] was 49%, the remaining activity at 1 µM [26] was 98% and the remaining activity at 1 µM [27] was 86%. The remaining activity at 1 µM [28] was 98%, the remaining activity at 1 µM [29] was 100% and the remaining activity at 1 µM ([30]; RSK4(Kin.Dom.1-N-terminal)) was 92%. For the same compound, the remaining activity at 1 µM ([30]; RSK4(Kin.Dom.2-C-terminal)) was 82% and the remaining activity at 1 µM [31] was 85%.
